Data reported in US11420976B2 (priority 2020, dated 2022).
Read-outs that look alike come from different tables or passages of the source.

Tests used:
[1] = tested on: rHMPV-GFP (recombinant HMPV CAN97-83, MPV-GFP1); assay: HMPV antiviral assay (eGFP fluorescence in Vero E6 cells); type: cell-based; conditions: Vero C1008, 120 h, read-out: rHMPV-GFP EC50
Method: HMPV antiviral activity was evaluated using a recombinant version of HMPV CAN97-83 engineered to contain the coding sequence for enhanced green fluorescence protein (eGFP) in the 3′ end of the virus genome (MPV-GFP1, ViraTree). Vero E6 cells (ATCC #CCL-7) were seeded at a density of 12,000 cells/100 μL/well into 96-well cell plates (VENDOR) one day prior to the assay. On the day of screening, the cell culture medium was aspirated from the wells and cells were washed twice with serum-free Eagle's Modified Essential Medium (EMEM, ATCC #) containing 1% penicillin-streptomycin (Invitrogen) (SF-EMEM). Cell washes were performed by dispensing 100 μL SF-EMEM per well and immediately aspirating the wash medium from the well. Following the second wash step, serum-free OptiMEM (Invitrogen, Cat No.) (SF-OptiMEM) containing 0.5 μg/mL TPCK-Trypsin (VENDOR) and 1% penicillin-streptomycin was added to the cells at 50 μL/well. Compounds were added into the 96-well plates using a JANUS automated liquid handling system (VENDOR). Compounds were initially diluted 1:50 into an intermediate 96-well plate containing SF-OptiMEM prior to transfer to the assay plate (25 μL/well). Each of the test compounds was tested in duplicate wells at final concentrations starting from 8 μM or 2 μM using ½ stepwise dilutions for a total of 8 points. Virus infection was performed by preparing a working stock of MPV-GFP1 at a multiplicity of infection (MOI) equal to 0.05/25 μL and aliquoting 25 μL of virus inoculum to the compound and positive control wells. SF-OptiMEM was added (25 μL/well) to the appropriate wells to serve as a virus-free negative control for the assay. The final DMSO concentration of all wells is 0.5%. Plates were incubated at 32° C., 5% CO2 for 5 days. After 5 days incubation, eGFP fluorescence intensity was measured at […] using a Spectramax i3X plate reader (VENDOR). Percent viral inhibition was calculated using the following equation: y=[[…]]×100 Where XQ is the fluorescence intensity measured in a well containing recombinant MPV-GFP1-infected, compound-treated cells and XP is the average fluorescence intensity measured in the wells containing untreated cells infected with recombinant virus. EC50 values were then calculated by non-linear regression using a four parameter curve logistic equation. The curve fit model employed was XLFit Dose Response One Site Model 200: y=(A+(B/(1+((x/C)^D)))) Where A is the minimum y value, B is the maximum y value, C is the log EC50 value, and D is the slope factor. The EC50 of each compound is listed in Table 2 and EC50 ranges are as follows: A<0.2 μM; B≥0.2 μM.

[2] = tested on: Human RSV-A (“Long” strain); assay: RSV-A assay (CPE, ATPlite readout in Hep-2 cells); type: cell-based; conditions: human respiratory syncytial virus, read-out: Human RSV-A (“Long” strain) EC50
From the text: Hep-2 cells, (originally derived from tumors grown in irradiated-cortisonised weanling rats that had been injected with epidermoid carcinoma tissue from a person's larynx, but later found to be indistinguishable from HeLa cells by PCR DNA analysis), were used for the culturing of genotype A, “Long” strain RSV. Flasks were inoculated with RSV and viral stocks were collected once cytopathic effect (CPE) was greater than 90%. Viral stocks in 25% sucrose media were snap frozen using liquid nitrogen to increase viral stability. Viral stock titers were quantified by tissue culture infectious dose 50% (TCID50) using 8,000 cells per well and 3-fold viral dilutions across a 96-well plate, cultured for 4 days. Viral stock titers were also quantified by a plaque forming unit assay, as described elsewhere.
Following extensive parameter testing, the final assay is run as follows: Hep-2 cells are seeded into the inner 60 wells of a 96-well plate at 8,000 cells per well in a volume of 50 μL using Growth Media (DMEM without phenol red, 1% L-Glut, 1% Penn/Strep, 1% nonessential amino acids, 10% heat-inactivated FBS). 2-fold serial dilutions of control and test compounds are added to the wells in duplicate in a total volume of 25 μL. Viral stock is then added to the wells at a multiplicity of infection (MOI) of 0.1 in a volume of 25 μL, bringing the total volume of each well to 100 μL. The MOI is calculated using the PFU/mL, or TCID50 if unavailable. Each 96-well plate has a control column of 6 wells with cells and virus but no compound (negative control, max CPE), a column with cells but no compound or virus (positive control, minimum CPE), and a column with no cells or virus or compound (background plate/reagent control). The control wells with cells but no virus are given an additional […], of growth media containing an equal quantity of sucrose as those wells receiving the viral stock in order to keep consistent in media and volume conditions. The outer wells of the plate are filled with 125 μL of moat media (DMEM, 1% Penn/Strep) to act as a thermal and evaporative moat around the test wells. Following a 5-day incubation period, the plates are read using ATPlite (50 uL added per well), which quantifies the amount of ATP (a measure of cell health) present in each well. Assay plates are read using the Envision luminometer. […] EC50 ranges are as follows: A<0.2 μM; B≥0.2 μM.

[3] = 120 h, Hep-2 cells, MOI 0.1, 5-day incubation, ATPlite

| EC50 [2, 3] [nM] | Structure (SMILES) | EC50 [1] [nM] | EC50 ([2]; HEp-2, 120 h) [nM] |
| --- | --- | --- | --- |
| > 200 | COCCOc1ccc(C(=O)NC[C@](O)(c2cc3c(c(-c4ccc(F)cc4)n2)OC[C@@]3(N)C(F)(F)F)C(F)(F)F)cc1OC [Example 37] |  |  |
| > 200 | COC(=O)N[C@@]1(C(F)(F)F)COc2c1cc([C@@](O)(CNC(=O)c1ccc(OC3CC3)c(OC)c1)C(F)(F)F)nc2-c1ccc(F)cc1 [Example 44] |  |  |
| > 200 | COc1cc(C(=O)NC[C@](O)(c2cc3c(c(-c4ccc(F)cc4)n2)OC[C@@]3(N)C(F)(F)F)C2COC2)ccc1OC1CC1 [Example 57] |  |  |
| < 200 | COc1cc(C(=O)NC[C@](O)(c2cc3c(c(-c4ccc(F)cc4)n2)OC[C@@]3(NC(=O)CO)C(F)(F)F)C(F)(F)F)ccc1OC1CC1 [Example 14, 4-cyclopropoxy-3-methoxy-N—((S)-3,3,3-trifluoro-2-((R)-7-(4-fluorophenyl)-3-(2-hydroxyacetamido)-3-(trifluoromethyl)-2,3-dihydrofuro[2,3-c]pyridin-5-yl)-2-hydroxypropyl)benzamide] |  |  |
| > 200 | COc1cc(C(=O)NC[C@](O)(c2cc3c(c(-c4ccc(F)cc4)n2)OC[C@@]3(N)C(F)(F)F)C(C)(C)C)ccc1OC1CC1 [Example 12, N—((S)-2-((R)-3-amino-7-(4-fluorophenyl)-3-(trifluoromethyl)-2,3-dihydrofuro[2,3-c]pyridin-5-yl)-2-hydroxy-3,3-dimethylbutyl)-4-cyclopropoxy-3-methoxybenzamide] |  |  |
| > 200 | COc1cc(C(=O)NC[C@](O)(c2cc3c(c(-c4ccc(F)cc4)n2)OC[C@@]3(N)C(F)(F)F)C(F)(F)F)ccc1C(F)(F)F [Example 42] |  |  |

Further lines, the compound ahead of its results:

| Structure (SMILES) | EC50 [2, 3] [nM] | EC50 [1] [nM] | EC50 ([2]; HEp-2, 120 h) [nM] |
| --- | --- | --- | --- |
| COc1cc(C(=O)NC[C@](O)(c2cc3c(c(-c4ccc(F)cc4)n2)OC[C@@]3(N)C(F)(F)F)C2CC2)ccc1OC1CC1 [Example 9, N—((S)-2-((R)-3-amino-7-(4-fluorophenyl)-3-(trifluoromethyl)-2,3-dihydrofuro[2,3-c]pyridin-5-yl)-2-cyclopropyl-2-hydroxyethyl)-4-cyclopropoxy-3-methoxybenzamide] | < 200 | < 200 |  |
| COc1cc(C(=O)NC[C@](O)(c2cc3c(c(-c4ccc(F)cc4)n2)OC[C@@]3(N)C(F)(F)F)C(F)(F)F)cc2cccnc12 [Example 5, N—((S)-2-((R)-3-amino-7-(4-fluorophenyl)-3-(trifluoromethyl)-2,3-dihydrofuro[2,3-c]pyridin-5-yl)-3,3,3-trifluoro-2-hydroxypropyl)-8-methoxyquinoline-6-carboxamide] | < 200 | > 200 |  |
| COc1cc(C(=O)NC[C@](O)(c2cc3c(c(-c4ccc(F)cc4)n2)OC[C@@]3(NC(=O)COC(C)=O)C(F)(F)F)C(F)(F)F)ccc1OC1CC1 [Example 13, 2-(((R)-5-((S)-3-(4-cyclopropoxy-3-methoxybenzamido)-1,1,1-trifluoro-2-hydroxypropan-2-yl)-7-(4-fluorophenyl)-3-(trifluoromethyl)-2,3-dihydrofuro[2,3-c]pyridin-3-yl)amino)-2-oxoethyl acetate] | < 200 | > 200 |  |
| COc1cc(C(=O)NC[C@](O)(c2cc3c(c(-c4ccc(F)cc4)n2)OC[C@]3(N)C(F)(F)F)C(F)(F)F)cc2cccnc12 [Example 6, N—((S)-2-((S)-3-amino-7-(4-fluorophenyl)-3-(trifluoromethyl)-2,3-dihydrofuro[2,3-c]pyridin-5-yl)-3,3,3-trifluoro-2-hydroxypropyl)-8-methoxyquinoline-6-carboxamide] | < 200 | > 200 |  |
| COc1cc(C(=O)NC[C@](O)(c2cc3c(c(-c4ccc(F)c(F)c4)n2)OC[C@@]3(N)C(F)(F)F)C2CC2)ccc1OC1CC1 [Example 23, N—((S)-2-((R)-3-amino-7-(3,4-difluorophenyl)-3-(trifluoromethyl)-2,3-dihydrofuro[2,3-c]pyridin-5-yl)-2-cyclopropyl-2-hydroxyethyl)-4-cyclopropoxy-3-methoxybenzamide] | < 200 | < 200 |  |
| COc1cc(C(=O)NC[C@](C)(O)c2cc3c(c(-c4ccc(F)c(Cl)c4)n2)OC[C@@]3(N)C(F)(F)F)ccc1OC1CC1 [Example 24, N—((S)-2-((R)-3-amino-7-(3-chloro-4-fluorophenyl)-3-(trifluoromethyl)-2,3-dihydrofuro[2,3-c]pyridin-5-yl)-2-hydroxypropyl)-4-cyclopropoxy-3-methoxybenzamide] | < 200 | < 200 |  |
| Cn1cc2cc(C(=O)NC[C@](O)(c3cc4c(c(-c5ccc(F)cc5)n3)OC[C@@]4(N)C(F)(F)F)C3CC3)cc(OC3CC3)c2n1 [Example 66, N—((S)-2-((R)-3-amino-7-(4-fluorophenyl)-3-(trifluoromethyl)-2,3-dihydrofuro[2,3-c]pyridin-5-yl)-2-cyclopropyl-2-hydroxyethyl)-7-cyclopropoxy-2-methyl-2H-indazole-5-carboxamide] | < 200 | < 200 |  |
| N[C@@]1(C(F)(F)F)COc2c1cc([C@@](O)(CNC(=O)c1ccc(OC3CC3)c(OC3CC3)c1)C1CC1)nc2-c1ccc(F)cc1 [Example 19, N—((S)-2-((R)-3-amino-7-(4-fluorophenyl)-3-(trifluoromethyl)-2,3-dihydrofuro[2,3-c]pyridin-5-yl)-2-cyclopropyl-2-hydroxyethyl)-3,4-dicyclopropoxybenzamide] | < 200 | < 200 |  |
| COC(=O)N[C@@]1(C(F)(F)F)COc2c1cc([C@@](C)(O)CNC(=O)c1ccc(OC3CC3)c(OC)c1)nc2-c1ccc(F)cc1 [Example 15, methyl ((R)-5-((S)-1-(4-cyclopropoxy-3-methoxybenzamido)-2-hydroxypropan-2-yl)-7-(4-fluorophenyl)-3-(trifluoromethyl)-2,3-dihydrofuro[2,3-c]pyridin-3-yl)carbamate] |  |  | < 200 |
| N[C@@]1(C(F)(F)F)COc2c1cc([C@@](O)(CNC(=O)c1cc(OC3CC3)c3[nH]c(=O)ccc3c1)C1CC1)nc2-c1ccc(F)cc1 [Example 59c] | > 200 |  |  |
| COc1cccc2cc(C(=O)NC[C@](O)(c3cc4c(c(-c5ccc(F)cc5)n3)OC[C@@]4(N)C(F)(F)F)C(F)(F)F)cnc12 [Example 41] | > 200 |  |  |
| COc1ccc2nc(C(=O)NC[C@](O)(c3cc4c(c(-c5ccc(F)cc5)n3)OC[C@@]4(N)C(F)(F)F)C(F)(F)F)cc(OC)c2c1 [Example 43] | > 200 |  |  |
| C[C@](O)(CNC(=O)c1cc(OC2CC2)c2ncccc2c1)c1cc2c(c(-c3ccc(F)c(Cl)c3)n1)OC[C@@]2(N)C(F)(F)F [Example 56] | > 200 |  |  |
